Data: paper PMC3383692, “Characterization of Plasmodium falciparum Adenylyl Cyclase-β and Its Role in Erythrocytic Stage Parasites” (PLoS ONE, 2012)
Like-named read-outs stand apart in the source and are kept apart here. Blank lines part the entries; values can stand above or below the molecule they belong to.

How the values were obtained:
[1] = molecular target: T1, PfACβ (adenylyl cyclase-β) (Plasmodium falciparum, UniProt C0H4R1); test: radioactive two-column adenylyl cyclase assay with purified GST-PfACβ[…]-785; assay type: biochemical
T1 construct: gene PF3D7_0802600; GST-PfACβ1-785 (catalytic domains, AA 1–785)
T1 sequence (C0H4R1 1-785): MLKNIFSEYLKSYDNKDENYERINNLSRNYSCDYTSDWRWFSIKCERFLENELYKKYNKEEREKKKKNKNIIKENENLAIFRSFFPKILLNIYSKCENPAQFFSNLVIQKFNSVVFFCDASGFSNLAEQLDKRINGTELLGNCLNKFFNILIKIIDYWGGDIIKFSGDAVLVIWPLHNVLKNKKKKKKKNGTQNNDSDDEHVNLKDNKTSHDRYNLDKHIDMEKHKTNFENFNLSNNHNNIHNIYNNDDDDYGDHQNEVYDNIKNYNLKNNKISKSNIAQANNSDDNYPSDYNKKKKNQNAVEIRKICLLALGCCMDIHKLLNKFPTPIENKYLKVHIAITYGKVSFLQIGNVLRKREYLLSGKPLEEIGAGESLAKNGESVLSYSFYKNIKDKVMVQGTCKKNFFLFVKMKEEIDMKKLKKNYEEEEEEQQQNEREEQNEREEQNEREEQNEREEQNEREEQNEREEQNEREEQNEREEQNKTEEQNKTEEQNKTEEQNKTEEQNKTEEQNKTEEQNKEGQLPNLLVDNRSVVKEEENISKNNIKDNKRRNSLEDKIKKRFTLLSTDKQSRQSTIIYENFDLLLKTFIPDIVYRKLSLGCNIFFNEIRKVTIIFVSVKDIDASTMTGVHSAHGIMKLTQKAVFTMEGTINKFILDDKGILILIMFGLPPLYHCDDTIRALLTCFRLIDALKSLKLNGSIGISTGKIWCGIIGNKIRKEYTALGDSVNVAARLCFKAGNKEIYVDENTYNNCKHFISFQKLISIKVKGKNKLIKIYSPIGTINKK

PfACα = molecular target: T2, PfACα (Plasmodium falciparum, UniProt Q8I7A1); test: adenylyl cyclase activity in PfACα-expressing Hi5 cells, […] 2-CE; assay type: cell-based
T2 construct: gene ac1
T2 sequence (Q8I7A1 1-884): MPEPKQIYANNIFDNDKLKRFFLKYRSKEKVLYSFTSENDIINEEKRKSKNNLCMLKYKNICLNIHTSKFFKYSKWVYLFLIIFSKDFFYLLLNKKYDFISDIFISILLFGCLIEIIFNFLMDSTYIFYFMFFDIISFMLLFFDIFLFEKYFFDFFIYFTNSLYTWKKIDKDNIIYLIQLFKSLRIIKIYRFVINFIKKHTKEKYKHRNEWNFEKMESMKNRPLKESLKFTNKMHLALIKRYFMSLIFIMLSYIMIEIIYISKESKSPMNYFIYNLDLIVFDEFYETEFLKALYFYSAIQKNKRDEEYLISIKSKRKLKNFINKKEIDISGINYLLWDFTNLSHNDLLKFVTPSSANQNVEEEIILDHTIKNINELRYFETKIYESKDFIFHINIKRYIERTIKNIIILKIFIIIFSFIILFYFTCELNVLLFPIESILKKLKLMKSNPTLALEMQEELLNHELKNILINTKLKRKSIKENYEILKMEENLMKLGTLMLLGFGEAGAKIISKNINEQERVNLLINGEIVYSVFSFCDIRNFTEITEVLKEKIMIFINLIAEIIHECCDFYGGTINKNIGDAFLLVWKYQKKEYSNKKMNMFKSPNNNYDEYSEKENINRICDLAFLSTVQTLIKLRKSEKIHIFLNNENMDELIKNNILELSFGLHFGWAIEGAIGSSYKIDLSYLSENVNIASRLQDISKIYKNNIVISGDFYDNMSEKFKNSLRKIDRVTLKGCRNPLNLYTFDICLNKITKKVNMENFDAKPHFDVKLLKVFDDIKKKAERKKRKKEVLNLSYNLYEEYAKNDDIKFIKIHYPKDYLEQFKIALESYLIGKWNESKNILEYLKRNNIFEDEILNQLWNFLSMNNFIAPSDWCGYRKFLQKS

[2] = substrate: Nc1ncnc2c1ncn2[C@@H]1O[C@H](COP(=O)(O)OP(=O)(O)OP(=O)(O)O)[C@@H](O)[C@H]1O; test: Michaelis-Menten kinetics (Km), adenylyl cyclase assay with purified enzyme; assay type: biochemical, Plasmodium falciparum; conditions: Mn2+ active site; lack of cooperative binding of substrate

- IC50 ([1]; read-out: IC50): 5 µM
Molecule: CC(Sc1nc2ccccc2[nH]1)C(=O)N/N=C/c1cc(Br)ccc1O (racemic) [KH7]

Molecule: C[C@]12CC[C@@H]3c4cc(O)c(O)cc4CC[C@H]3[C@@H]1CC[C@@H]2O [2-CE, 2-hydroxyestradiol]
- adenylyl cyclase activity in PfACα-expressing Hi5 cells, 50 μM 2-CE (PfACα): although PfACα adenylyl cyclase activity was inhibited by 2-CE, it was largely insensitive to KH7 (Figure 4C)
- IC50 [1]: 8 µM

Molecule: KH7.15
- IC50 ([1]; read-out: IC50): 150 µM

B1: PfACβ (adenylyl cyclase-β) (Plasmodium falciparum 3D7) (protein)
chain: T1 sequence (C0H4R1 1-785)
notes: GST-PfACβ1-785 (catalytic domains, AA 1–785)
- Km [2]: 570 µM
